This is an account of results in patent publication US9216999B2, “Substituted pyrrolo[2,3-h][1,6]naphthyridines and compositions thereof as JAK inhibitors” (priority 2011, dated 2015).

Common to all, as to type: biochemical
Common to all, as to settings: ATP 100 μM

The target in experiment [1] is JAK1 (Homo sapiens (Human), UniProt P23458). Put plainly: Enzyme assay (Assay Example^a 1), JAK1.
In experiment [2] the target is JAK2 (Homo sapiens (Human), UniProt O60674). Put plainly: Enzyme assay (Assay Example^a 1), JAK2.
Experiment [3] addresses JAK3 (Homo sapiens (Human), UniProt P52333). In words: Enzyme assay (Assay Example^a 1), JAK3.
Experiment [4] has as its target Tyk2 (Homo sapiens (Human), UniProt P29597). Put plainly: Enzyme assay (Assay Example^a 1), Tyk2.

Where only a bound is given, the exact number is not on record here.

Chain of JAK3 (P52333 whole entry): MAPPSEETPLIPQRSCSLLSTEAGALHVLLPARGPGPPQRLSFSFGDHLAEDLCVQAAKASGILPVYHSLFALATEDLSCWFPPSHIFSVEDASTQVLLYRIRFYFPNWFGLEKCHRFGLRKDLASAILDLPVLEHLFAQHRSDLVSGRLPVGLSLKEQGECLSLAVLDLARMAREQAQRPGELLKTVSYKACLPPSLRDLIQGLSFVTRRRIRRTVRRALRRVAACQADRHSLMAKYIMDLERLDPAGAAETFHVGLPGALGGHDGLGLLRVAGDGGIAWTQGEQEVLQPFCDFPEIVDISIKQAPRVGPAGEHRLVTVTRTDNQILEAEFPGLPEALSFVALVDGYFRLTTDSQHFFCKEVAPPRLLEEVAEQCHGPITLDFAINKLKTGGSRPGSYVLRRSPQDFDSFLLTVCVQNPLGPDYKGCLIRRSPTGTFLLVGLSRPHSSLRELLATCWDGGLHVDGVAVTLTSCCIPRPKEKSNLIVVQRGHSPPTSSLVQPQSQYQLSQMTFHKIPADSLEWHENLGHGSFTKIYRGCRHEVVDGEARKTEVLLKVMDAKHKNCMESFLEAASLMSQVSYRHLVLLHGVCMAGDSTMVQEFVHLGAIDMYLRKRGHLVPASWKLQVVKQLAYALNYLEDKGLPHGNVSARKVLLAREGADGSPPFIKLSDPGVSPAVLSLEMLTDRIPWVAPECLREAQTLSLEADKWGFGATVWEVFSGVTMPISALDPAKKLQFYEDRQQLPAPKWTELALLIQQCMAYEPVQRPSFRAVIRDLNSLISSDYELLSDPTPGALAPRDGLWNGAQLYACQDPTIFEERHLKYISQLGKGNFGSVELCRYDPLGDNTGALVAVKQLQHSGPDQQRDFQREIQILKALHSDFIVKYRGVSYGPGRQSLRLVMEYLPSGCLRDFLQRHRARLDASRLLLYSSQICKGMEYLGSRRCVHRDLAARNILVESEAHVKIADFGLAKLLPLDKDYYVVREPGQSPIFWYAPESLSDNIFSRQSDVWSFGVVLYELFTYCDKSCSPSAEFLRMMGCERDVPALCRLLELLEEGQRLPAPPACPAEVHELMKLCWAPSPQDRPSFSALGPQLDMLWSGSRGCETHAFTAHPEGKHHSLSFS
Chain of Tyk2 (P29597 whole entry): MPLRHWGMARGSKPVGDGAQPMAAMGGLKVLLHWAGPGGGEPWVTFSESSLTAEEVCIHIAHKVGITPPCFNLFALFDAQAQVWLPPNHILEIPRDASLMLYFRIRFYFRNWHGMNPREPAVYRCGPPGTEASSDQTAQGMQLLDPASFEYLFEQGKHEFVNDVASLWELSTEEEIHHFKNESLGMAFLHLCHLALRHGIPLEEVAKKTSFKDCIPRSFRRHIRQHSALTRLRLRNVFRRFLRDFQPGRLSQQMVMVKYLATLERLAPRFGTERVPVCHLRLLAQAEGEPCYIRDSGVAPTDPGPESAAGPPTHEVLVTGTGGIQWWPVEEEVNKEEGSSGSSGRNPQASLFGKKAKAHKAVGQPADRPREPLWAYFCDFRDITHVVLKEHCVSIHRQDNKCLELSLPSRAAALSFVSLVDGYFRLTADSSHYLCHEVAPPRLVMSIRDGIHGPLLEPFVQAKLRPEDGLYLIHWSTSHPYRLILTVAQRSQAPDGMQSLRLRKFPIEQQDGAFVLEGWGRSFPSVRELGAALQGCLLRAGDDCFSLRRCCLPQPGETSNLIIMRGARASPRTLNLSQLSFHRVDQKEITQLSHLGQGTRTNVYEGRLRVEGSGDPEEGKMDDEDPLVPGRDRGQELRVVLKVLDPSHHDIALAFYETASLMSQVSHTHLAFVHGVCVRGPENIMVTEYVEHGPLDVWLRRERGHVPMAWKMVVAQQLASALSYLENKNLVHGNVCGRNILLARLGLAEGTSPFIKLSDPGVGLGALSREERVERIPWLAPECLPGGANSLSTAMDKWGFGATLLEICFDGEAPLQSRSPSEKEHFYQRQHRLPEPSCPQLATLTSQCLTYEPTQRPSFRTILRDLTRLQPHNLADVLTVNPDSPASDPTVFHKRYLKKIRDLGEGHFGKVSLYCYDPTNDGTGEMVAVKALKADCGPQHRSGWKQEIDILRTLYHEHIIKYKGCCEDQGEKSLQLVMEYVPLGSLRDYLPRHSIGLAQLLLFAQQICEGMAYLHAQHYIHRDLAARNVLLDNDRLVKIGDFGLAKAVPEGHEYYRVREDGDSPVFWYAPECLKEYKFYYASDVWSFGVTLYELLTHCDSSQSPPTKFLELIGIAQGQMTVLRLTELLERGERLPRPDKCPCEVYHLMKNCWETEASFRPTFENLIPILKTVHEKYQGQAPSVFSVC

As usually defined, the IC50 is the point on the concentration scale where inhibition reaches its midpoint. With `C[C@H](O)CNC[C@H]1CC[C@H](c2nnn3cnc4[nH]ccc4c23)CC1` [compound 184, (S)-1-({[trans-4-(7H-pyrrolo[3,2-e][1,2,3]triazolo[1,5-c]pyrimidin-1-yl)cyclohexyl]methyl}amino)propan-2-ol], the IC50 came out at 0.0035 µM in experiment [1] (Table^a 154), 0.042 µM in experiment [2] (Table^a 154), 0.58 µM in experiment [3] (Table^a 154) and 0.087 µM in experiment [4] (Table^a 154).
As for `O=C(CC(F)(F)F)N(CC(F)(F)F)C[C@H]1CC[C@H](c2nnn3cnc4[nH]ccc4c23)CC1` [compound 411, N-{[trans-4-(7H-Pyrrolo[3,2-e][1,2,3]triazolo[1,5-c]pyrimidin-1-yl)cyclohexyl]methyl}-3,3,3-trifluoro-N-(2,2,2-trifluoroethyl)propanamide], the IC50 in experiment [1] is 0.0043 µM; in experiment [2] it was 0.015 µM; in experiment [3], 0.17 µM; in experiment [4], 0.36 µM.
Regarding `OC12CC3CC(C1)C(NC[C@H]1CC[C@H](c4nnn5cnc6[nH]ccc6c45)CC1)C(C3)C2` (stereo partly drawn) [compound 304, (1S,3R,4s,5S,7S)-4-({[trans-4-(7H-pyrrolo[3,2-e][1,2,3]triazolo[1,5-c]pyrimidin-1-yl)cyclohexyl]methyl}amino)adamantan-1-ol], the IC50 in experiment [1] was 0.049 µM; in experiment [2] it was 0.27 µM; in experiment [3], greater than 1 µM; in experiment [4], greater than 1 µM.
On to `Cc1ccccc1-c1nnn2cnc3[nH]ccc3c12` [compound 5], for which the IC50 in experiment [1] was found to be 0.02 µM; in experiment [2], 0.13 µM; in experiment [3], 0.26 µM; in experiment [4], 0.13 µM.
With `IC[C@H]1CC[C@H](c2nnn3cnc4[nH]ccc4c23)CC1` [compound 367], the IC50 is 0.00099 µM in experiment [1], 0.0043 µM in experiment [2], 0.054 µM in experiment [3] and 0.0073 µM in experiment [4].
Taken in the same sequence, the figures for `O=C1COc2ccc(NC[C@H]3CC[C@H](c4nnn5cnc6[nH]ccc6c45)CC3)cc2N1` [compound 274, 6-({[trans-4-(7H-pyrrolo[3,2-e][1,2,3]triazolo[1,5-c]pyrimidin-1-yl)cyclohexyl]methyl}amino)-2H-benzo[b][1,4]oxazin-3(4H)-one] were 0.0035 µM, 0.029 µM, greater than 1 µM and 0.2 µM.
The corresponding values for `OC1CN(C[C@H]2CC[C@@H](c3nnn4cnc5[nH]ccc5c34)CC2)C1` [compound 403, 1-{[cis-4-(7H-Pyrrolo[3,2-e][1,2,3]triazolo[1,5-c]pyrimidin-1-yl)cyclohexyl]methyl}azetidin-3-ol] are 0.04 µM, 0.3 µM, 0.44 µM and 0.81 µM.
As for `O[C@@H]1Cc2ccccc2[C@@H]1NC1CCC(c2nnn3cnc4[nH]ccc4c23)CC1` (mixture of isomers) [compound 379, (1S,2R)-1-{[4-(7H-pyrrolo[3,2-e][1,2,3]triazolo[1,5-c]pyrimidin-1-yl)cyclohexyl]amino}-2,3-dihydro-1H-inden-2-ol], the IC50 was 0.013 µM in experiment [1], 0.11 µM in experiment [2], 0.66 µM in experiment [3] and 0.29 µM in experiment [4].
In the case of `NC[C@H]1CC[C@H](c2nnn3cnc4[nH]ccc4c23)CC1` [compound 371, [trans-4-(7H-Pyrrolo[3,2-e][1,2,3]triazolo[1,5-c]pyrimidin-1-yl)cyclohexyl]methanamine], the IC50 in experiment [1] is 0.0033 µM; in experiment [2], 0.035 µM; in experiment [3], 0.39 µM; in experiment [4] it was 0.18 µM.
`Fc1cc(CN2CCC(c3nnn4cnc5[nH]ccc5c34)CC2)ccc1C(F)(F)F` [compound 167, 1-{1-[3-fluoro-4-(trifluoromethyl)benzyl]piperidin-4-yl}-7H-pyrrolo[3,2-e][1,2,3]triazolo[1,5-c]pyrimidine]: the IC50 in experiment [1] (Table^a 154) is 0.0031 µM; in experiment [2] (Table^a 154), 0.03 µM; in experiment [3] (Table^a 154), 0.17 µM; in experiment [4] (Table^a 154), 0.98 µM.
Taken in the same sequence, the figures for `N#Cc1ccc(CN[C@H]2CC[C@@H](c3nnn4cnc5[nH]ccc5c34)CC2)cc1` [137a] were 0.032 µM, 0.49 µM, greater than 1 µM and 0.31 µM.
Regarding `N#CCN[C@H]1CC[C@H](c2nnn3cnc4[nH]ccc4c23)CC1` [393b, 2-{[trans-4-(7H-pyrrolo[3,2-e][1,2,3]triazolo[1,5-c]pyrimidin-1-yl)cyclohexyl]amino}acetonitrile], the IC50 in experiment [1] was determined as 0.0062 µM; in experiment [2], 0.03 µM; in experiment [3], 0.79 µM; in experiment [4], 0.38 µM.
For `FC1(F)CN(C[C@H]2CC[C@H](c3nnn4cnc5[nH]ccc5c34)CC2)C1` [compound 339, 1-{trans-4-[(3,3-difluoroazetidin-1-yl)methyl]cyclohexyl}-7H-pyrrolo[3,2-e][1,2,3]triazolo[1,5-c]pyrimidine], the IC50 in experiment [1] amounted to 0.018 µM; in experiment [2] it was 0.052 µM; in experiment [3], 0.26 µM; in experiment [4] it was 0.86 µM.
The corresponding values for `c1cc2c(ncn3nnc([C@H]4CC[C@H](CNC56CC(C5)C6)CC4)c23)[nH]1` [compound 316, N-{[trans-4-(7H-pyrrolo[3,2-e][1,2,3]triazolo[1,5-c]pyrimidin-1-yl)cyclohexyl]methyl}bicyclo[1.1.1]pentan-1-amine] are 0.013 µM, 0.099 µM, greater than 1 µM and 0.59 µM.
Taken in the same sequence, the figures for `O=C(NCC(O)(c1ccccc1)C(F)(F)F)[C@H]1CC[C@H](c2nnn3cnc4[nH]ccc4c23)CC1` (stereo partly drawn) [compound 346, trans-4-(7H-Pyrrolo[3,2-e][1,2,3]triazolo[1,5-c]pyrimidin-1-yl)-N-(3,3,3-trifluoro-2-hydroxy-2-phenylpropyl)cyclohexanecarboxamide] were 0.0051 µM, 0.06 µM, greater than 1 µM and greater than 1 µM.
Taken in the same sequence, the figures for `c1cc2c(ncn3nnc([C@H]4CC[C@H](CN5CCC(N6CCOCC6)CC5)CC4)c23)[nH]1` [compound 334, 4-(1-{[trans-4-(7H-pyrrolo[3,2-e][1,2,3]triazolo[1,5-c]pyrimidin-1-yl)cyclohexyl]methyl}piperidin-4-yl)morpholine] were 0.064 µM, greater than 1 µM, greater than 1 µM and greater than 1 µM.
Consider `CCOC(=O)C=C1CCC(c2nnn3cnc4[nH]ccc4c23)CC1` (stereo not shown) [compound 436, ethyl 2-[4-(7H-pyrrolo[3,2-e][1,2,3]triazolo[1,5-c]pyrimidin-1-yl)cyclohexylidene]acetate], for which the IC50 in experiment [1] is 0.035 µM; in experiment [2], 0.17 µM; in experiment [3], greater than 1 µM; in experiment [4], greater than 1 µM.
For `OC1CN(C[C@H]2CC[C@H](c3nnn4cnc5[nH]ccc5c34)CC2)C1` [compound 257, 1-{[trans-4-(7H-pyrrolo[3,2-e][1,2,3]triazolo[1,5-c]pyrimidin-1-yl)cyclohexyl]methyl}azetidin-3-ol], the IC50 came to 0.0017 µM in experiment [1], 0.016 µM in experiment [2], 0.49 µM in experiment [3] and 0.049 µM in experiment [4].
For the compound `N#CCNS(=O)(=O)C[C@H]1CC[C@H](c2nnn3cnc4[nH]ccc4c23)CC1` [compound 419, 1-[trans-4-(7H-pyrrolo[3,2-e][1,2,3]triazolo[1,5-c]pyrimidin-1-yl)cyclohexyl]-N-(cyanomethyl)methanesulfonamide], the IC50 came to 0.0035 µM in experiment [1], 0.0061 µM in experiment [2], 0.069 µM in experiment [3] and 0.27 µM in experiment [4].
As for `Fc1ccc(NC[C@H]2CC[C@H](c3nnn4cnc5[nH]ccc5c34)CC2)cc1C(F)(F)F` [compound 251, N-{[trans-4-(7H-pyrrolo[3,2-e][1,2,3]triazolo[1,5-c]pyrimidin-1-yl)cyclohexyl]methyl}-4-fluoro-3-(trifluoromethyl)aniline], the IC50 was 0.031 µM in experiment [1], 0.2 µM in experiment [2], greater than 1 µM in experiment [3] and greater than 1 µM in experiment [4].
With `c1cc2c(ncn3nnc([C@H]4CC[C@@H](NN5CCOCC5)CC4)c23)[nH]1` [139a], the IC50 was 0.26 µM in experiment [1] (Table^a 154), 0.4 µM in experiment [2] (Table^a 154), 0.43 µM in experiment [3] (Table^a 154) and greater than 1 µM in experiment [4] (Table^a 154).
Consider `CC(=O)N[C@H]1CCN(C[C@H]2CC[C@H](c3nnn4cnc5[nH]ccc5c34)CC2)C1` [compound 319, N-((S)-1-{[trans-4-(7H-pyrrolo[3,2-e][1,2,3]triazolo[1,5-c]pyrimidin-1-yl)cyclohexyl]methyl}pyrrolidin-3-yl)acetamide], for which the half-maximal inhibitory concentration (IC50) in experiment [1] was 0.027 µM; in experiment [2], 0.23 µM; in experiment [3], greater than 1 µM; in experiment [4] it was greater than 1 µM.
Consider `Clc1n[nH]c2ccc(CN3CCC(c4nnn5cnc6[nH]ccc6c45)CC3)cc12` [compound 217, 1-{1-[(3-chloro-1H-indazol-5-yl)methyl]piperidin-4-yl}-7H-pyrrolo[3,2-e][1,2,3]triazolo[1,5-c]pyrimidine], for which the IC50 in experiment [1] is 0.08 µM; in experiment [2] it was 0.18 µM; in experiment [3], 0.38 µM; in experiment [4], greater than 1 µM.
The corresponding values for `FC(F)(F)C(F)(F)CN[C@H]1CC[C@@H](c2nnn3cnc4[nH]ccc4c23)CC1` [383a, cis-N-(2,2,3,3,3-pentafluoropropyl)-4-(7H-pyrrolo[3,2-e][1,2,3]triazolo[1,5-c]pyrimidin-1-yl)cyclohexanamine] are 0.09 µM, 0.37 µM, greater than 1 µM and greater than 1 µM.
As to `FC(F)Oc1ccc(CN2CCC(c3nnn4cnc5[nH]ccc5c34)CC2)cc1` [compound 220, 1-{1-[4-(difluoromethoxy)benzyl]piperidin-4-yl}-7H-pyrrolo[3,2-e][1,2,3]triazolo[1,5-c]pyrimidine], the IC50 was 0.013 µM in experiment [1], 0.086 µM in experiment [2], 0.62 µM in experiment [3] and greater than 1 µM in experiment [4].
